# Source: PubChem BioAssay AID1259408 (Genetic Toxicology Data Bank (GENE-TOX), 2018)
# Active and inactive are the calls of the source. How the calls were made is not given here.
# Tested on: GENE-TOX genotoxicity assays, various organisms and cells
# Experiment: GENE-TOX mutagenicity studies
# Conditions: for call: Assay Type: In vivo carcinogenicity studies
# [1] = Species/Cell Type: Nonhuman, Assay Code: CCG+, Evaluation Type: Evaluation A (Pre-1980)
# [2] = Species/Cell Type: Nonhuman, Assay Type: Sister-chromatid exchange (SCE) in vivo, Assay Code: SC3+, Evaluation Type: Evaluation B (Post-1980)
# [3] = Species/Cell Type: Salmonella typhimurium (one or more of the five standard strains: TA98, TA100, TA1535, TA1537, and TA1538), Assay Type: Histidine reverse gene mutation, Ames assay, Assay Code: SAL+*, Activation: With metabolic activation, Evaluation Type: Evaluation A (Pre-1980)
# [4] = Species/Cell Type: Syrian hamster embryo (SA7/SHE) cells, Assay Type: Cell transformation, viral enhanced, Assay Code: CT7+, Evaluation Type: Evaluation A (Pre-1980)
# [5] = Species/Cell Type: Salmonella typhimurium (one or more of the five standard strains: TA98, TA100, TA1535, TA1537, and TA1538), Assay Type: Histidine reverse gene mutation, Ames assay, Assay Code: SALT, Evaluation Type: Evaluation A (Pre-1980)
# [6] = Species/Cell Type: Drosophila melanogaster, Assay Type: Sex-linked recessive lethal gene mutation, Assay Code: SRL+, Evaluation Type: Evaluation A (Pre-1980)
# [7] = Species/Cell Type: Human lymphocytes, Assay Type: Sister-chromatid exchange (SCE) in vitro, Assay Code: SCL+D, Dose Response: With dose response, Evaluation Type: Evaluation A (Pre-1980)
# [8] = Species/Cell Type: Human, Assay Type: Sister-chromatid exchange (SCE) in vitro, Assay Code: SC1+D, Dose Response: With dose response, Evaluation Type: Evaluation A (Pre-1980)
# [9] = Species/Cell Type: Nonhuman, Assay Code: CCG+L, Evaluation Type: Evaluation A (Pre-1980)
# [10] = Species/Cell Type: Saccharomyces cerevisiae, Assay Type: Mitotic recombination or gene conversion, Assay Code: YEC+, Evaluation Type: Evaluation A (Pre-1980)
# [11] = Species/Cell Type: Nonhuman, Assay Type: Sister-chromatid exchange (SCE) in vitro, Assay Code: SC2+D, Dose Response: With dose response, Evaluation Type: Evaluation B (Post-1980)
# [12] = Species/Cell Type: Bacillus subtilis (H17 vs M45), Assay Type: Rec-assay, spot test, DNA effects (bacterial DNA repair), Assay Code: REW+, Evaluation Type: Evaluation A (Pre-1980)
smiles,measurement,setting,value
CCCN(CCC)N=O,mutagenic call,"Species/Cell Type: Chinese hamster lung (V79) cells, Assay Type: Forward gene mutation at the HPRT or ouabain locus, Assay Code: V79+, Evaluation Type: Evaluation A (Pre-1980)",active; positive
same,mutagenic call,"Species/Cell Type: Human diploid fibroblasts, Assay Type: Unscheduled DNA synthesis (UDS) in vitro, DNA effects, Assay Code: UDHT, Evaluation Type: Evaluation A (Pre-1980)",no conclusion
same,call,[1],active; positive
same,mutagenic call,[2],active; positive
same,mutagenic call,[3],active; positive
same,mutagenic call,[4],active; positive
O=S(O)OS(=O)O,mutagenic call,"Species/Cell Type: Escherichia coli WP2 UVRA, Assay Type: Tryptophan reverse gene mutation, Assay Code: WPU-*, Activation: With metabolic activation, Evaluation Type: Evaluation A (Pre-1980)",inactive; negative
CCN(CCO)CCNc1ccc(CO)c2sc3cc(Cl)ccc3c(=O)c12,mutagenic call,"Species/Cell Type: Mouse lymphoma (L5178Y) cells, Assay Type: Forward gene mutation at the thymidine kinase (TK) locus, chromosome aberrations, Assay Code: L51+, Evaluation Type: Evaluation A (Pre-1980)",active; positive
Oc1c(Br)cc(Br)c2cccnc12,mutagenic call,[5],no conclusion
NNc1nnc(NN)c2ccccc12,mutagenic call,[2],active; positive
Cn1sccc1=O,mutagenic call,"Species/Cell Type: Mammalian polychromatic erythrocytes, Assay Type: Micronucleus test, chromosome aberrations, Assay Code: MNT-, Evaluation Type: Evaluation B (Post-1980)",inactive; negative
O=[N+]([O-])c1ccc(-c2csc(Nc3ccccc3)n2)o1,mutagenic call,"Species/Cell Type: Escherichia coli WP2, Assay Type: Tryptophan reverse gene mutation, Assay Code: WP2+, Evaluation Type: Evaluation A (Pre-1980)",active; positive
same,mutagenic call,"Species/Cell Type: Escherichia coli WP2 UVRA, Assay Type: Tryptophan reverse gene mutation, Assay Code: WPU-, Evaluation Type: Evaluation A (Pre-1980)",inactive; negative
Cc1cc(N)c(N)cc1N,mutagenic call,[5],no conclusion
c1ccc2c(c1)Nc1ccccc1S2,mutagenic call,[4],active; positive
O=C1C=C(N2CC2)C(=O)C(N2CC2)=C1N1CC1,mutagenic call,[6],active; positive
same,mutagenic call,"Species/Cell Type: Drosophila melanogaster, Sex: Male, Assay Type: Heritable translocation test, chromosome aberrations, Assay Code: DHT+, Evaluation Type: Evaluation A (Pre-1980)",active; positive
same,mutagenic call,"Species/Cell Type: Glycine max (soybean), Assay Type: Gene mutation, Assay Code: GLM+, Evaluation Type: Evaluation A (Pre-1980)",active; positive
same,mutagenic call,"Species/Cell Type: Hordeum vulgare (barley), Assay Type: Chromosome aberrations, Assay Code: HOC+D, Dose Response: With dose response, Evaluation Type: Evaluation A (Pre-1980)",active; positive
same,mutagenic call,"Species/Cell Type: Human lymphocytes or leukocytes, Assay Type: Chromosome aberrations in vitro, Assay Code: CY7T, Evaluation Type: Evaluation A (Pre-1980)",no conclusion
same,mutagenic call,[7],active; positive
same,mutagenic call,[8],active; positive
same,mutagenic call,"Species/Cell Type: Mammalian germ cells, Sex: Male, Assay Type: Chromosome aberrations in vivo, Assay Code: CY9T, Evaluation Type: Evaluation A (Pre-1980)",no conclusion
same,mutagenic call,"Species/Cell Type: Mammalian oocytes or early embryo, Assay Type: Chromosome aberrations in vivo, Assay Code: CYO+, Evaluation Type: Evaluation A (Pre-1980)",active; positive
same,mutagenic call,"Species/Cell Type: Mammalian polychromatic erythrocytes, Assay Type: Micronucleus test, chromosome aberrations, Assay Code: MNT+, Evaluation Type: Evaluation A (Pre-1980)",active; positive
same,mutagenic call,"Species/Cell Type: Neurospora crassa, Assay Type: Forward gene mutation, Assay Code: NEF+, Evaluation Type: Evaluation A (Pre-1980)",active; positive
same,call,[9],active; positive
same,mutagenic call,"Species/Cell Type: Nonhuman, Assay Type: Sister-chromatid exchange (SCE) in vitro, Assay Code: SC2+D, Dose Response: With dose response, Evaluation Type: Evaluation A (Pre-1980)",active; positive
same,mutagenic call,"Species/Cell Type: Nonhuman, Assay Type: Sister-chromatid exchange (SCE) in vivo, Assay Code: SC3+D, Dose Response: With dose response, Evaluation Type: Evaluation A (Pre-1980)",active; positive
same,mutagenic call,"Species/Cell Type: Rodents, Sex: Female, Assay Type: Dominant lethal test, Assay Code: DLTF+D, Dose Response: With dose response, Evaluation Type: Evaluation A (Pre-1980)",active; positive
same,mutagenic call,"Species/Cell Type: Rodents, Sex: Male, Assay Type: Dominant lethal test, Assay Code: DLT+D, Dose Response: With dose response, Evaluation Type: Evaluation A (Pre-1980)",active; positive
same,mutagenic call,[10],active; positive
same,mutagenic call,"Species/Cell Type: Saccharomyces cerevisiae, Assay Type: Reverse gene mutation, Assay Code: YER+, Evaluation Type: Evaluation A (Pre-1980)",active; positive
same,mutagenic call,"Species/Cell Type: Salmonella typhimurium, Escherichia coli, Serratia marcesens, Assay Type: Forward and reverse gene mutation, host-mediated assay, Assay Code: HMN+, Evaluation Type: Evaluation A (Pre-1980)",active; positive
CC1=C(/C=C/C(C)=C/C=C/C(C)=C/C=C/C=C(C)/C=C/C=C(C)/C=C/C2=C(C)CCCC2(C)C)C(C)(C)CCC1,mutagenic call,"Species/Cell Type: Bacillus subtilis (H17 vs M45T), Assay Type: Rec-assay, spot test, DNA effects (bacterial DNA repair), Assay Code: REXT, Evaluation Type: Evaluation A (Pre-1980)",no conclusion
same,mutagenic call,"Species/Cell Type: Mammalian polychromatic erythrocytes, Assay Type: Micronucleus test, chromosome aberrations, Assay Code: MNTT, Evaluation Type: Evaluation B (Post-1980)",no conclusion
CC[C@@]1(O)C[C@H](O[C@H]2C[C@H](N)[C@H](O)[C@H](C)O2)c2c(cc3c(c2O)C(=O)c2c(O)cccc2C3=O)[C@H]1C(=O)OC,mutagenic call,[3],active; positive
Cc1cc2cc3cc(C)c(N)cc3nc2cc1N,mutagenic call,"Species/Cell Type: Mammalian cell culture, nonhuman, Assay Type: Micronucleus test in vitro, chromosome aberrations, Assay Code: MN&+, Evaluation Type: Evaluation A (Pre-1980)",active; positive
same,mutagenic call,[10],active; positive
COc1ccc2nc3cc(Cl)ccc3c(NCCCNCCCl)c2n1,mutagenic call,"Species/Cell Type: Chinese hamster ovary (CHO) cells, Assay Type: Forward gene mutation at the HPRT locus, Assay Code: CHO+D, Dose Response: With dose response, Evaluation Type: Evaluation A (Pre-1980)",active; positive
Cc1ccc2cc3c(ccc4ccccc43)cc2c1,mutagenic call,[11],active; positive
same,mutagenic call,[3],active; positive
CC1CCCN(N=O)C1 (configuration not stated),mutagenic call,[6],active; positive
same,call,[9],active; positive
same,mutagenic call,"Species/Cell Type: Saccharomyces cerevisiae, Assay Type: Forward gene mutation, Assay Code: YEF+*, Activation: With metabolic activation, Evaluation Type: Evaluation A (Pre-1980)",active; positive
same,mutagenic call,"Species/Cell Type: Saccharomyces cerevisiae, Assay Type: Reverse gene mutation, Assay Code: YER+*, Activation: With metabolic activation, Evaluation Type: Evaluation A (Pre-1980)",active; positive
same,mutagenic call,[3],active; positive
OC[C@@H](O)C(O)[C@@H](O)CO (some centres not stated),mutagenic call,"Species/Cell Type: Human, Assay Type: Sister-chromatid exchange (SCE) in vitro, Assay Code: SC1-, Evaluation Type: Evaluation B (Post-1980)",inactive; negative
same,mutagenic call,"Species/Cell Type: Salmonella typhimurium, Assay Type: Forward and reverse gene mutation, body fluid assay, Assay Code: BFU-, Evaluation Type: Evaluation A (Pre-1980)",inactive; negative
same,mutagenic call,"Species/Cell Type: Salmonella typhimurium, Assay Type: Forward and reverse gene mutation, host-mediated assay, Assay Code: HMA-, Evaluation Type: Evaluation A (Pre-1980)",inactive; negative
O=[Se](O)O,mutagenic call,[12],active; positive
same,mutagenic call,"Species/Cell Type: Bacillus subtilis (H17 vs M45), Assay Type: Rec-assay, spot test, DNA effects (bacterial DNA repair), Assay Code: REW-, Evaluation Type: Evaluation A (Pre-1980)",inactive; negative
same,mutagenic call,[7],active; positive
same,mutagenic call,"Species/Cell Type: Human lymphocytes, Assay Type: Sister-chromatid exchange (SCE) in vivo, Assay Code: SCY+, Evaluation Type: Evaluation B (Post-1980)",active; positive
same,mutagenic call,[8],active; positive
same,mutagenic call,[11],active; positive
same,mutagenic call,"Species/Cell Type: Nonhuman, Assay Type: Sister-chromatid exchange (SCE) in vivo, Assay Code: SC3+D, Dose Response: With dose response, Evaluation Type: Evaluation B (Post-1980)",active; positive
same,mutagenic call,"Species/Cell Type: Salmonella typhimurium (one or more of the five standard strains: TA98, TA100, TA1535, TA1537, and TA1538), Assay Type: Histidine reverse gene mutation, Ames assay, Assay Code: SAL+, Evaluation Type: Evaluation A (Pre-1980)",active; positive
CC(=O)Oc1c2ccccc2c2ccc3cccc4ccc1c2c43,mutagenic call,[4],active; positive
c1ccc2c(c1)ccc1nc3ccc4ccccc4c3cc12,mutagenic call,"Species/Cell Type: Fischer rat embryo (RLV/1706) cells, Assay Type: Cell transformation, viral enhanced, Assay Code: CTR+, Evaluation Type: Evaluation A (Pre-1980)",active; positive
same,call,[1],active; positive
same,mutagenic call,[3],active; positive
C[C@H]1CCCC(=O)CCC/C=C/c2cc(O)cc(O)c2C(=O)O1,mutagenic call,[12],active; positive
same,mutagenic call,"Species/Cell Type: Saccharomyces cerevisiae, Assay Type: Mitotic recombination or gene conversion, Assay Code: YEH-, Evaluation Type: Evaluation A (Pre-1980)",inactive; negative
CCCCCCCC/C=C/CCCCCCCC(=O)OCCOCC(OCCO)C1OCC(OCCO)C1OCCO (configuration not stated),mutagenic call,"Species/Cell Type: Human lymphocytes, Assay Type: Sister-chromatid exchange (SCE) in vitro, Assay Code: SCLT, Evaluation Type: Evaluation B (Post-1980)",no conclusion
same,mutagenic call,"Species/Cell Type: Human, Assay Type: Sister-chromatid exchange (SCE) in vitro, Assay Code: SC1T, Evaluation Type: Evaluation B (Post-1980)",no conclusion
CCNC(=O)/C=C(C)/C=C/C=C(C)/C=C/c1c(C)cc(OC)c(C)c1C,mutagenic call,"Species/Cell Type: Mouse (C3H/10T1/2) cells, Assay Type: Cell transformation, Assay Code: CTH-, Evaluation Type: Evaluation A (Pre-1980)",inactive; negative
